Measured values from patent EP0651636B1, “CHEMOTHERAPY FOR CANCER” (THE JOHNS HOPKINS UNIVERSITY, priority 1992, dated 1994).
Values after ≈ are worked out from the molar mass of the structure shown. Like-named read-outs stand apart in the source and are kept apart here.

How the values were obtained:
[1] = test system: SK-BR-3 human mammary carcinoma cells; assay: Crystal violet growth inhibition assay, 48 hour exposure; assay type: cell-based
Procedure: (§1) This experiment was performed using the crystal violet growth inhibition assay. Cells with varying degrees of FAS activity were plated at 5000 cells per well in 96 well plates in RPMI-1640 with 10% heat-inactivated fetal bovine serum. After 72 hours of incubation in a humidified 95% air: 5% CO2 atmosphere, varying concentrations (0-500 µg/ml) of TOFA (5-tetradecyloxyl)-2-furoic acid were added and cultures were re-incubated for 48 hours. Plates were then removed and stained with crystal violet as described. Absorbance readings were averaged for each concentration of agent (n=4), control (n=8), and background (n=8). Background readings were subtracted. The concentration of TOFA is plotted against growth (as % of control growth) in Figure 15.
In these experiments, cells were plated at 5000 cells per well in a 96-well microtiter plate and maintained in RPMI-1640 with 10% heat-inactivated fetal bovine serum for 72 hours. Next, the compounds indicated in Table 4 were added, and cells were incubated for an additional 48 hours. Growth inhibition was then measured using the crystal violet method.

[2] = test system: ZR-75-1 cells; assay: Triacsin-C and cerulenin synergy, crystal violet growth inhibition; assay type: cell-based; details: Homo sapiens, ZR-75-1, 24 h
Procedure: 96 well microtiter plates were plated with ZR-75-1 cells at 25,000 cells/well and incubated overnight (18 h) at 37° C in 5% CO2. Triacsin-C was added to achieve the following micromolar concentrations in the presence of 0, 2.5, 5.0 or 10.0 µg/ml cerulenin: 50, 25, 12.5, 6.2, 3.1, 1.6, 0.8, 0.4, 0.2, 0.1 and 0. Each concentration was performed in quadruplicate. Cells were incubated for 24 hours, washed in PBS, solubilized in 1% SDS, stained with 0.2% crystal violet in 2% ethanol, and read at 490 nm on a Molecular Diagnostics plate reader.

[3] = target: rat liver acyl-CoA synthetase; details: read-out: concentration causing 50% inhibition; cited from earlier work
[4] = test system: Raji cells; details: cited from earlier work
[5] = test system: Vero; details: cited from earlier work
[6] = test system: Hela cells; details: cited from earlier work
[7] = target: condensing enzyme (Saccharomyces cerevisiae, UniProt P19097); details: report of Morisaki, et. al.; cited from earlier work
[8] = target: T1, OA-519 fatty acid synthase (Homo sapiens, UniProt P49327); assay: Spectrophotometric fatty acid synthase assay (NADPH oxidation at 340 nm); assay type: biochemical
T1 construct: endogenous in cells; host or cells: ZR-75-1 breast carcinoma cell line (protein purified from the lysate)
Procedure: Spectrophotometric fatty acid synthase assay: The fatty acid synthase assay was performed in a total volume of 451 µl with the following components: 18.88 µg of purified OA-519 fatty acid synthase from the ZR-75-1 breast carcinoma cell line as described in Example 2, 25 nanomoles acetyl-CoA, 75 nanomoles NADPH, and 50 µl of 1 molar potassium phosphate, pH 6.6 at 25°C. The substrate malonyl-CoA was added at concentrations of 0.5 and 0.6 micromolar in the presence of 0, 9.9, 148, 198, or 397 micromolar cerulenin. HPLC grade water was added to achieve a final volume of 451 µl for all assays.
The enzyme, NADPH, acetyl-CoA, phosphate, cerulenin, and water were combined, vortexed, and incubated in a Beckman DU 650 spectrophotometer at 37°C. Oxidation of NADPH was monitored at 340 nm without substrate to determine background for 2 min. Malonyl-CoA was then added to the reaction cuvette, mixed, and incubated at 37°C while NADPH oxidation was determined at 10 second intervals at 340 nm in the spectrophotometer for a total of 2 min. All determinations were performed in duplicate.
Results: The spectrophotometric data was plotted according to Dixon (Dixon, M., Biochem. J., 55:170-171, 1953) which graphs inhibitor concentration versus 1/v for each given substrate concentration. […]

[9] = test system: ZR-75-1 cells; assay: In vitro growth inhibition assay (crystal violet) with oleic acid supplement; assay type: cell-based, human; details: for effect on carcinoma cells: standard in vitro growth inhibition assays
Procedure: (§2) In vitro growth inhibition assays for OA-519 inhibition were performed using ZR-75-1 cells or normal human fibroblasts which were grown to confluence, and then 25,000 cells were plated in 1:1 conditioned:fresh medium (RPMI with 10% fetal calf serum) supplemented at a physiologic level to 0.5 millimolar oleic acid bound to previously delipidized bovine serum albumin. Cells were allowed to attach and grow overnight. At time 0, drugs diluted in RPMI medium with 10% fetal calf serum were added to achieve the following concentrations: 50 µg/ml to 0.01 µg/ml with serial two-fold dilutions including no drug and empty well controls. Each concentration was performed in quadruplicate and time points were taken at 4, 8, 24, and 48 h. After drug treatment, cells were stained with crystal violet, solubilized in SDS, and read on a Molecular Diagnostics automated plate reader at 570 nm.

[10] = test system: normal human fibroblasts; assay: as above; assay type: cell-based; details: for effect on normal human fibroblasts: standard in vitro growth inhibition assays
Procedure: as §2

[11] = test system: H125 lung carcinoma line; assay: Growth inhibition assay without oleic acid, single 24 h time point; assay type: cell-based; details: no oleic acid, line with 11.6 picomoles per minute enzyme activity
Procedure: as §2
Growth Inhibition Assay: Anti-proliferative activity of cerulenin for each cell line was determined using the same assay and drug concentrations described in Example 5, except that no oleic acid was added and a single 24 h time point was taken.

[12] = test system: MCF-7 cells; assay: Clonogenic assay; assay type: cell-based, human; details: 10 µg/ml; exposure time 24 hours
Procedure: Clonogenic assay: One million cells were plated in 25 cm sq. flasks. […] Cells were then trypsinized to a single cell suspension and plated in 16 mm dishes at 1000 or 500 cells per dish in triplicate. Following 3 days incubation for ZR-75-1 and MCF-7 cells, and 7 days for SKBR3 cells, colonies were counted and expressed as the percentage of the untreated control.

[13] = test system: Dupro-1; assay: Population doubling assay, viable cell count (trypan blue); assay type: cell-based; details: Homo sapiens; 48-hour exposure; relative to untreated cultures; read-out: concentration giving 50% inhibition of population doubling
Procedure: (§3) TSU-pr1 and Dupro-1 cell lines were plated in RPMI-1640 with 10% fetal bovine serum at 3 X 10^5 and 1 X 10^5 cells respectively/T25 flask in a humidified atmosphere of 95% air: 5% CO2. After 24 hours, initial plating density was measured. In addition, media was replaced (control) or cerulenin was added at 2.5-10 µg/ml to duplicate cultures. Forty-eight hours later, cells were trypsinized and viable cells (trypan blue excluding) counted. The number of population doublings was estimated.

[14] = test system: TSU-pr1; assay: as above; assay type: cell-based; details: Homo sapiens, 48-hour exposure, relative to untreated cultures, read-out: concentration giving 50% inhibition of population doubling
Procedure: as §3

[15] = test system: ZR-75-1 cells; assay: Oleate rescue from cerulenin growth inhibition; assay type: cell-based, human; details: 10 µg/ml cerulenin for 24 hours; 1.5 mM oleate
Procedure: ZR-75-1 cells (5,000 per well) were plated in 96 well microtiter plates in medium supplemented with 0, 0.5, 1.0 or 1.5 mM oleate bound to delipidized bovine serum albumin at a molar ration of 4:1. After 18 hours incubation, cerulenin was added at a dose of 10 µg/ml. Cells were stained and assayed as in Example 10 after 24 hours (Figure 17, upper line) or 48 hours (lower line). The middle line of Figure 17 represents cells which were re-fed at 24 hours with medium containing the respective oleate concentration without cerulenin and assayed after a 48 hour total incubation. Error bars represent standard error of the mean.

[16] = test system: six cell lines listed in Table 3; assay: 14C-acetate incorporation into acyl-glycerides; assay type: cell-based, human; details: cerulenin 0, 2.5, 5.0 or 10.0 µg/ml; 6 hours
Procedure: (§4) Measurement of endogenous fatty acid incorporation into acyl-glycerides: For each cell type, 200,000 cells were plated in triplicate for non-polar and polar lipid analysis. Following overnight growth, each well of cells was incubated for 2 hours with 1 µCi ^14C acetate. ^14C-labeled lipids were extracted as above, and dried under N2. For analysis of non-polar lipids, samples were resuspended in 10 ul chloroform and spotted on silica gel N-HR (Brinkmann) and chromatographed in hexane:ethyl ether:acetic acid, 65:25:4 by volume. Cholesterol, palmitic acid, tripalmitin, and cholesterol palmitate (Matreya) were run as controls at 50 µg each. […] 50 µg each of cholesterol, phosphatidyl ethanolamine, lecithin, and lysolecithin (Matreya) were run as controls. ^14C-labeled lipids were detected and quantified using a Bioscan System 2000 imaging scanner with Autochanger 3000. […] Phosphatidylcholine and triglycerides were the predominant acyl-glycerides detected.
(§5) Measurement of endogenous fatty acid incorporation into acyl-glycerides and cholesterol: For each cell type, 200,000 cells were plated in triplicate for non-polar and polar lipid analysis for each drug dose in 24 well plates. […] For the last two hours of cerulenin incubation, 1 µCi of ^14C acetate was added per well. ^14C-labeled lipids were then extracted, chromatographed, and detected as described above. […]

[17] = test system: MCF-7 cells; assay: 14C-acetate incorporation into cholesterol; assay type: cell-based, human; details: cerulenin 0, 2.5, 5.0 or 10.0 µg/ml; 6 hours
Procedure: as §4, §5

[18] = test system: SKBR3 cells; assay: 14C-acetate incorporation into cholesterol; assay type: cell-based, human; details: cerulenin 0, 2.5, 5.0 or 10.0 µg/ml; 6 hours
Procedure: as §4, §5

[19] = target: viral HIV protease (Human immunodeficiency virus type 1 group M subtype B, UniProt P04585); details: cited from earlier work
[20] = test system: H'27; assay: Crystal violet growth inhibition assay, 48 hour exposure; assay type: cell-based; details: Homo sapiens, read-out: ID50 (the source's name)
Procedure: as §1

[21] = test system: SW480; assay: as above; assay type: cell-based; details: Homo sapiens, read-out: ID50 (the source's name)
Procedure: as §1

[22] = test system: ZR-75-1; assay: as above; assay type: cell-based; details: Homo sapiens, read-out: ID50 (the source's name)
Procedure: as §1

[23] = SK-BR-3, 48 h, read-out: ID50 (µg/ml)
[24] = SK-BR-3, 48 hours, dose giving 50% reduction of control absorbance, quadruplicate, read-out: ID50 (the source's name)

T1 sequence (P49327 2-2511 limits assumed): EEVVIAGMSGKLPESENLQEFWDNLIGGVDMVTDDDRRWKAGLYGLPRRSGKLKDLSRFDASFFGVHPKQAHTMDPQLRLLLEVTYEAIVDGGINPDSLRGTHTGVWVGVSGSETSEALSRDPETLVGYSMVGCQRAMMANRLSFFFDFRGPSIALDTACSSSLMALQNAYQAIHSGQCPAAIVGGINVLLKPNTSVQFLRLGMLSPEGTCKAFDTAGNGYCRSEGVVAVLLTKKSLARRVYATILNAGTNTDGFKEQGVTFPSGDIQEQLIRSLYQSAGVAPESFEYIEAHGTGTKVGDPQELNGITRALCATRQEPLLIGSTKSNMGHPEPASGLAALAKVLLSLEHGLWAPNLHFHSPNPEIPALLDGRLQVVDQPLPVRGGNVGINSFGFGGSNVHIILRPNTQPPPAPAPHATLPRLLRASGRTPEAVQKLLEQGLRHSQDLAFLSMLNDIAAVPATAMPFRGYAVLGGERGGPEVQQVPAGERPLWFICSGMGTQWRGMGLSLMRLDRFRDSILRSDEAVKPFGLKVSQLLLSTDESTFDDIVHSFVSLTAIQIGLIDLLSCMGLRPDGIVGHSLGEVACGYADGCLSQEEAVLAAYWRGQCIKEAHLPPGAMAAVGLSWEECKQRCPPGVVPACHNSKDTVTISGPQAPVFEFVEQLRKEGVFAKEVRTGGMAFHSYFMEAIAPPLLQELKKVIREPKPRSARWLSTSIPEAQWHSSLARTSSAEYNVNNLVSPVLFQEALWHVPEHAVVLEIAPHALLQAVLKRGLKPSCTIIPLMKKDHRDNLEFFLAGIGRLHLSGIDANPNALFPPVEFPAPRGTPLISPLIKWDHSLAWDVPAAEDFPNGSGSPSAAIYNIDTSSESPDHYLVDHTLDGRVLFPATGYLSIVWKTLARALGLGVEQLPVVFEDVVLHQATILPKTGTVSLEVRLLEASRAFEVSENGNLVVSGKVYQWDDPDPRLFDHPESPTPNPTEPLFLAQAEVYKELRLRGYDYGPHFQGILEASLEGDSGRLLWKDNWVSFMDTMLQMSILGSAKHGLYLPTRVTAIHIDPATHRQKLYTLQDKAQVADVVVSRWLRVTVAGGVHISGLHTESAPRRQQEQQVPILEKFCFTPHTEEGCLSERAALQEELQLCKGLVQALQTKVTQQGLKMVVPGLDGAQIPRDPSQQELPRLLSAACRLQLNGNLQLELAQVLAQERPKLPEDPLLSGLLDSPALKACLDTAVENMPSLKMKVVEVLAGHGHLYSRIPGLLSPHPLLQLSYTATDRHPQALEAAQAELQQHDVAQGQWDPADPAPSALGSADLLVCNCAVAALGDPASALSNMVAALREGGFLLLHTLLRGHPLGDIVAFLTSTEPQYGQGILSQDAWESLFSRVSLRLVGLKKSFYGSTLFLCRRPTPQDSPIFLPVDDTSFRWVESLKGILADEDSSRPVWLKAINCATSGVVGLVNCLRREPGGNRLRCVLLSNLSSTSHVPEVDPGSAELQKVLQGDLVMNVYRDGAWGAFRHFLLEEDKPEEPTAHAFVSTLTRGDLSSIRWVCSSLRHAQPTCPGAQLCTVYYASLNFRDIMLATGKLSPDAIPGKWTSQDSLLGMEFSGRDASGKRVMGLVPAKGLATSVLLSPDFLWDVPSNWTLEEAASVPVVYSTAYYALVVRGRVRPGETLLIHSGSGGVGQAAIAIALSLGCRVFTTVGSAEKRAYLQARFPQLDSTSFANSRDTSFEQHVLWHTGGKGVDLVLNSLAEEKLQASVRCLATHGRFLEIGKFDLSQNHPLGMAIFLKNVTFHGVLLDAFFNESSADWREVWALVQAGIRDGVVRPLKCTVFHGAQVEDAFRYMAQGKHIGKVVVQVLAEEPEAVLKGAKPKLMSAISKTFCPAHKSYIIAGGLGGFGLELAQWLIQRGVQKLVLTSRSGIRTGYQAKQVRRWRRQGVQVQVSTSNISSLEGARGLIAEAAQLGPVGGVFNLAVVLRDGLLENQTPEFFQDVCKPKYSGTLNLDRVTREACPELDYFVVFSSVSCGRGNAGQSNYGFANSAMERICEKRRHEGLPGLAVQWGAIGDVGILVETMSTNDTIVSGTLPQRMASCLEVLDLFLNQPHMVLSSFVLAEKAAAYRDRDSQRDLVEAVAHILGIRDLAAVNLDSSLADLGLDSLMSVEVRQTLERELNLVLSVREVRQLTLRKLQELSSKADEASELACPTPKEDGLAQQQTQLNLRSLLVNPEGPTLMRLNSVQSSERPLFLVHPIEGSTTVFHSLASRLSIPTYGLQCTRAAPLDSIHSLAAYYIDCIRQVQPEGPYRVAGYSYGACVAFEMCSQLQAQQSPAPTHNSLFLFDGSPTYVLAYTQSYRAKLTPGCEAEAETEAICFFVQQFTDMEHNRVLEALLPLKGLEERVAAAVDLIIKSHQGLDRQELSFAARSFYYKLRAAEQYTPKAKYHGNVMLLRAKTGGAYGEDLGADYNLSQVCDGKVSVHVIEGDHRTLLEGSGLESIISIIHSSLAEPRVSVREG

O=C(O)C(=O)CBr [Bromopyruvate]
IC50 [1, 23]: 52 µg/mL (≈ 311 µM)

CCC/C=C/C/C=C/C=C/C=NN=NO [Triacsin C, 1-hydroxy-3-(E, E, E-2', 4', 7' - undecatrienylidine) triazene]
IC50 ([2]; cerulenin added at a level approximating its ID50): < 1 µM | IC50 ([2]; triacsin-C alone, read-out: ID50 (the source's name)): ~15 µM | IC50 [3]: 8.7 µM | concentration causing growth inhibition [4]: 1.0 µM | growth inhibition [5]: inhibit growth | growth inhibition [6]: inhibit growth

Cc1cc2c(C(C)C)c(O)c(O)c(C=O)c2c(O)c1-c1c(C)cc2c(C(C)C)c(O)c(O)c(C=O)c2c1O [Gossypol]
IC50 [1, 23]: 3.1 µg/mL (≈ 5.98 µM)

CCN1C(=O)C=CC1=O [N-ethylmaleimide]
IC50 [1, 23]: 0.9 µg/mL (≈ 7.19 µM)

CCCCCCCCC(=O)C1OC1C(N)=O (centres unmarked) [Tetrahydrocerulenin]
times less potent than cerulenin [7]: 80-150 times

NC(=O)CI [Iodoacetamide]
IC50 [1, 23]: 0.3 µg/mL (≈ 1.62 µM)

C/C=C/C/C=C/CCC(=O)[C@H]1O[C@H]1C(N)=O [cerulenin, (2S) (3R) 2,3-epoxy-4-oxo-7,10 dodecadienoyl amide]
Ki ([8]; for the substrate malonyl-CoA, Dixon plot, enzyme purified from ZR-75-1, read-out: apparent Ki): 32 µM | type of inhibition of OA-519 fatty acid synthase activity ([8]; purified OA-519): non-competitive inhibitor | inhibition at 6.25 µg/mL ([9]; Homo sapiens, ZR-75-1, cerulenin 6.25 µg/ml, by 48 h, 0.5 millimolar oleic acid, read-out: growth inhibited): > 80% | effect on carcinoma cells [9]: anti-proliferative | effect on growth ([10]; cerulenin 6.25 µg/ml, 0.5 millimolar oleic acid): unaffected | effect on normal human fibroblasts [10]: little effect | growth inhibition [11]: 48% | cell kill [12]: greater than three logs of cell kill | IC50 [13]: 3 to 4 µg/mL (≈ 13.4 to 17.9 µM) | IC50 [14]: 3 to 4 µg/mL (≈ 13.4 to 17.9 µM) | IC50 [1, 24]: 3.6 µg/mL (≈ 16.1 µM) | reversal of growth inhibition by oleate [15]: virtually complete reversal of growth inhibition | incorporation of 14C-acetate into acyl-glycerides [16]: consistently and significantly inhibited in a dose-related manner | cholesterol synthesis [17]: mild inhibition | cholesterol synthesis [18]: stimulation | concentration at which inhibition occurs [19]: 5 mg/mL

CCC/C(=N\OCC)C1=C(O)CC(CC(C)SCC)CC1=O (centres unmarked) [Sethoxydim]
IC50 [1, 23]: 9.5 µg/mL (≈ 29 µM)

CCCCCCCCCCCCCCOc1ccc(C(=O)O)o1 [TOFA, 5 (tetradecyloxy)-2-furoic acid]
IC50 [1, 24]: 4.6 µg/mL (≈ 14.2 µM) | IC50 [20]: 44.7 µg/mL (≈ 138 µM) | IC50 [21]: 59.8 µg/mL (≈ 184 µM) | IC50 [22]: 0.8 µg/mL (≈ 2.47 µM)

Nc1nc(N)nc(Nc2ccc([As]3SCC(CO)S3)cc2)n1 (centres unmarked) [melarsoprol]
effect on carcinoma cells [9]: anti-proliferative | effect on normal human fibroblasts [10]: little effect

CC(C)(COP(=O)(O)OP(=O)(O)OC[C@H]1O[C@@H](n2cnc3c(N)ncnc32)[C@H](O)[C@@H]1OP(=O)(O)O)[C@@H](O)C(=O)NCCC(=O)NCCSCC(=O)O [S-carboxymethyl CoA]
IC50 [1, 24]: 61.4 µg/mL (≈ 74.4 µM)
